From paper PMC4861610 (Drug Design, Development and Therapy, 2016) come the findings set out here.

Series [1] can be described thus: MTT cytotoxicity assay, normal liver HL7702 cells. The class given is cell-based, human. To be noted: human, HL7702 normal liver cells.
The target in series [2] is EGFR (Homo sapiens, UniProt P00533). Description: LANCE Ultra TR-FRET kinase selectivity assay, EGFR. The class given is biochemical. On the technique in general: TR-FRET usually uses a lanthanide donor and a delayed reading to cut background.
Series [3] addresses FGFR2 (Homo sapiens, UniProt P21802). Description: LANCE Ultra TR-FRET kinase selectivity assay, FGFR2. The series is classed as biochemical.
For series [4], the target named is FGFR1 kinase (Homo sapiens, UniProt P11362). Description: LANCE Ultra TR-FRET kinase assay, FGFR1. The class given is biochemical. To be noted: for Selectivity ratio: ratio of the second lowest IC50 against the lowest IC50 value among FLT3, FGFR1-3, PDGFR-β, EGFR.
Series [5] has as its target PDGFR-β (Homo sapiens, UniProt P09619). Description: LANCE Ultra TR-FRET kinase selectivity assay, PDGFR-β. The class given is biochemical.
Series [6] has as its target T1, FLT3 (Homo sapiens, UniProt P36888).
T1 sequence (P36888 27-993): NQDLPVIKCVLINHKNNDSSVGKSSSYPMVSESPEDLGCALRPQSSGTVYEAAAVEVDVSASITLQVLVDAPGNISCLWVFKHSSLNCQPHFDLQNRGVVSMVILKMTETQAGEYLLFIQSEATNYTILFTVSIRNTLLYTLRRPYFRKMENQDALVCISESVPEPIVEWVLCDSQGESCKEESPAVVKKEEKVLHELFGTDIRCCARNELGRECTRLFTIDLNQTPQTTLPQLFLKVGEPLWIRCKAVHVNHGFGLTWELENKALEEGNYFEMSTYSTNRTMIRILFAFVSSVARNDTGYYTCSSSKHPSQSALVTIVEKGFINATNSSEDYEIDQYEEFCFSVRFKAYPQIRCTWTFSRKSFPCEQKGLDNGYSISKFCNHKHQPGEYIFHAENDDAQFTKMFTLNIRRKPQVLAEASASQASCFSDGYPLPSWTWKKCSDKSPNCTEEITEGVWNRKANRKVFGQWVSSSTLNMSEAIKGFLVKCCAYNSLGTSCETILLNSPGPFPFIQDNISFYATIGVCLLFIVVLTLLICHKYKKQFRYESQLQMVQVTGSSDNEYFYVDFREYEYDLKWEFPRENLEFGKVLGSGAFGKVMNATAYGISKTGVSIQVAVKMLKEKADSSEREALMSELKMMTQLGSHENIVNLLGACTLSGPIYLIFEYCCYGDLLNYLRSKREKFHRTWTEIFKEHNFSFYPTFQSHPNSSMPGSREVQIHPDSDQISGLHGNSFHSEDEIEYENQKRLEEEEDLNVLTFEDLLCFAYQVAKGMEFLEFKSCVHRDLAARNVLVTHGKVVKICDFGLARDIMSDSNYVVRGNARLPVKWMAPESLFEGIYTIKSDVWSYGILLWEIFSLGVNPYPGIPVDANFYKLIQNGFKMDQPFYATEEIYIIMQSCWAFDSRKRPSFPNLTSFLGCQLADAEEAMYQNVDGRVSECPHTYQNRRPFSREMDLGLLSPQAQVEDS
Description: LANCE Ultra TR-FRET kinase selectivity assay, FLT3. The series is classed as biochemical.

Series [7] deals with FGFR3 (Homo sapiens, UniProt P22607). Nature of the series: LANCE Ultra TR-FRET kinase selectivity assay, FGFR3. The series is classed as biochemical.
In series [8] the test system is HL7702 cells. Description: MTT cytotoxicity assay, normal liver HL7702 cells. To be noted: 2 and 10 µM, Figure 5A and B. The class given is cell-based, human. (Formazan colour is commonly taken as a measure of viable cells.)

EGFR, sequence (P00533 25-1210, species assumed): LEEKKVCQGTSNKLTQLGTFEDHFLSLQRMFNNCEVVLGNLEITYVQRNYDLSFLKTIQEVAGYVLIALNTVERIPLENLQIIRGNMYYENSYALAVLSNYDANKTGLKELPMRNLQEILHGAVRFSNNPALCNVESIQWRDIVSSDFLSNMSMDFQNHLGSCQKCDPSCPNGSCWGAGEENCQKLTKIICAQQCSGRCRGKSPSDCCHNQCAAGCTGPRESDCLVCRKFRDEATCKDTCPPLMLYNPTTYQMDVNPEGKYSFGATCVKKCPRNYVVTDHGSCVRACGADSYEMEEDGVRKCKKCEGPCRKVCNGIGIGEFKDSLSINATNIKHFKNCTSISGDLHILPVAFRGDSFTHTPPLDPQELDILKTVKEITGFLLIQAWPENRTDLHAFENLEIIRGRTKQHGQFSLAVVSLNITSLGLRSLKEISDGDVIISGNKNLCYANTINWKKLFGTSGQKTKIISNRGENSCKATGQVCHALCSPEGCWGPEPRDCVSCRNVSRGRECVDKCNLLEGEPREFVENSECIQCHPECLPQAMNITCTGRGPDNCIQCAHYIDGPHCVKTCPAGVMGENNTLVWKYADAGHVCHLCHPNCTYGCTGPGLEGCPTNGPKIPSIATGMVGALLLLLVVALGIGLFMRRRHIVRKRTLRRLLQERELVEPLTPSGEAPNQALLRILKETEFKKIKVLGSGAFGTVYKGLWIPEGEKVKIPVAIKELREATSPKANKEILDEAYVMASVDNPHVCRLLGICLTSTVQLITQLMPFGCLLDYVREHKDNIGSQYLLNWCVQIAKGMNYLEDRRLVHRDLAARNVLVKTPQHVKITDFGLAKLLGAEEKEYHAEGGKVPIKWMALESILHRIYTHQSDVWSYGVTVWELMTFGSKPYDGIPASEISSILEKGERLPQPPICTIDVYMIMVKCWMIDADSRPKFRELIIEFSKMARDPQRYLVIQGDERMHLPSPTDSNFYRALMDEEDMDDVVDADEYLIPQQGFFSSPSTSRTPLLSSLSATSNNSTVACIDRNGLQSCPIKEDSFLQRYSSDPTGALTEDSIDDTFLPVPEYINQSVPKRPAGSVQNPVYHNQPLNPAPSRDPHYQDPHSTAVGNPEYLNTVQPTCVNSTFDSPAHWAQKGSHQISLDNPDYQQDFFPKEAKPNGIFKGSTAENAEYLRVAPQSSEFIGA
FGFR1 kinase, sequence (P11362 478-767 limits assumed): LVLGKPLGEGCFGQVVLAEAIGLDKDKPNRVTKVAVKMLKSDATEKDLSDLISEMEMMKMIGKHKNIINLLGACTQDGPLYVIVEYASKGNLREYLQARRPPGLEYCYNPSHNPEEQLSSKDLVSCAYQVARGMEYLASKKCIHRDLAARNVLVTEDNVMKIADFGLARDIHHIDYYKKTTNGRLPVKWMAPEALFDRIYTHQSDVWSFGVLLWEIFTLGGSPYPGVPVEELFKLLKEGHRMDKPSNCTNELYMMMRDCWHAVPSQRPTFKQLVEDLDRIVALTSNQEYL
FGFR2, sequence (P21802 22-821, species assumed): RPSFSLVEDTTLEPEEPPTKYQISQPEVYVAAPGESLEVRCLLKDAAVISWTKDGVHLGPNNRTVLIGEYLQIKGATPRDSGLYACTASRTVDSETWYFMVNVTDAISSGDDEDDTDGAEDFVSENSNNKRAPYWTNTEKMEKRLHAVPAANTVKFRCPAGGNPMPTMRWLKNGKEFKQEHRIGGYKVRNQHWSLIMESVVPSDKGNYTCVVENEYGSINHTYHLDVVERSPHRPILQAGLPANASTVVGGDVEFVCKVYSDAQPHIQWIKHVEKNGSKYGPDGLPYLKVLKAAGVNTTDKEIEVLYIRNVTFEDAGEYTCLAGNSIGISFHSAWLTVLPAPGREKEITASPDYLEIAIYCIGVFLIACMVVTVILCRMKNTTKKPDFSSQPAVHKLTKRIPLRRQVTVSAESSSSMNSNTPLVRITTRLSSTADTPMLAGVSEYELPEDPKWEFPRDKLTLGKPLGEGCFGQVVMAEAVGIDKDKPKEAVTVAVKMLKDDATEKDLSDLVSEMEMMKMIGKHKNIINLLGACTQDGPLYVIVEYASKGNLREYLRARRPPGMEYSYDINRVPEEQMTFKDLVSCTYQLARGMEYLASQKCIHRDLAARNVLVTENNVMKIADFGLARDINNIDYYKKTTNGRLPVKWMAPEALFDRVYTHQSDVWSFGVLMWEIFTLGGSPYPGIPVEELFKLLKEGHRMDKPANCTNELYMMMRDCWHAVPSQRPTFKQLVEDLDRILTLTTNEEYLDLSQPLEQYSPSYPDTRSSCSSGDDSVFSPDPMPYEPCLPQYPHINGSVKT
FGFR3, sequence (P22607 23-806, species assumed): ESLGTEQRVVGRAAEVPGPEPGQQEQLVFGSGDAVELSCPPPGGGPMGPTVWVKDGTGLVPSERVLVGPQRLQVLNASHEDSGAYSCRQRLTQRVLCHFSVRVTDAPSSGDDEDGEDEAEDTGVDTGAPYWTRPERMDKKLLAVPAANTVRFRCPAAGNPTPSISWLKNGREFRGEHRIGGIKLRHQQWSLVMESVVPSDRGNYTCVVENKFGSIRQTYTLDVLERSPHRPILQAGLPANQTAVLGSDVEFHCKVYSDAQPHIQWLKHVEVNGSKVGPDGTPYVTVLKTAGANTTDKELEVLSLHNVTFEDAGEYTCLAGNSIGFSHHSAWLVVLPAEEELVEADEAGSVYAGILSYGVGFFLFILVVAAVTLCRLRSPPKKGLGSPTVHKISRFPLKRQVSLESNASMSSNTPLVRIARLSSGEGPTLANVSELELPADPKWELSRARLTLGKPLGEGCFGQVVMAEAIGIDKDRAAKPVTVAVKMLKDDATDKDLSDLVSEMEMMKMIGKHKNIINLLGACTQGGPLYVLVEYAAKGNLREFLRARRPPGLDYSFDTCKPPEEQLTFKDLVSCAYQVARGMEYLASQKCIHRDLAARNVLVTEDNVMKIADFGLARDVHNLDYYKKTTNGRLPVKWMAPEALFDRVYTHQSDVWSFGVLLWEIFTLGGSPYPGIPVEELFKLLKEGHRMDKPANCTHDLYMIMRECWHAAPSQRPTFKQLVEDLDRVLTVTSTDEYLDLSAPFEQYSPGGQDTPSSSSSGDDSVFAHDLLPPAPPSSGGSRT
PDGFR-β, sequence (P09619 33-1106, species assumed): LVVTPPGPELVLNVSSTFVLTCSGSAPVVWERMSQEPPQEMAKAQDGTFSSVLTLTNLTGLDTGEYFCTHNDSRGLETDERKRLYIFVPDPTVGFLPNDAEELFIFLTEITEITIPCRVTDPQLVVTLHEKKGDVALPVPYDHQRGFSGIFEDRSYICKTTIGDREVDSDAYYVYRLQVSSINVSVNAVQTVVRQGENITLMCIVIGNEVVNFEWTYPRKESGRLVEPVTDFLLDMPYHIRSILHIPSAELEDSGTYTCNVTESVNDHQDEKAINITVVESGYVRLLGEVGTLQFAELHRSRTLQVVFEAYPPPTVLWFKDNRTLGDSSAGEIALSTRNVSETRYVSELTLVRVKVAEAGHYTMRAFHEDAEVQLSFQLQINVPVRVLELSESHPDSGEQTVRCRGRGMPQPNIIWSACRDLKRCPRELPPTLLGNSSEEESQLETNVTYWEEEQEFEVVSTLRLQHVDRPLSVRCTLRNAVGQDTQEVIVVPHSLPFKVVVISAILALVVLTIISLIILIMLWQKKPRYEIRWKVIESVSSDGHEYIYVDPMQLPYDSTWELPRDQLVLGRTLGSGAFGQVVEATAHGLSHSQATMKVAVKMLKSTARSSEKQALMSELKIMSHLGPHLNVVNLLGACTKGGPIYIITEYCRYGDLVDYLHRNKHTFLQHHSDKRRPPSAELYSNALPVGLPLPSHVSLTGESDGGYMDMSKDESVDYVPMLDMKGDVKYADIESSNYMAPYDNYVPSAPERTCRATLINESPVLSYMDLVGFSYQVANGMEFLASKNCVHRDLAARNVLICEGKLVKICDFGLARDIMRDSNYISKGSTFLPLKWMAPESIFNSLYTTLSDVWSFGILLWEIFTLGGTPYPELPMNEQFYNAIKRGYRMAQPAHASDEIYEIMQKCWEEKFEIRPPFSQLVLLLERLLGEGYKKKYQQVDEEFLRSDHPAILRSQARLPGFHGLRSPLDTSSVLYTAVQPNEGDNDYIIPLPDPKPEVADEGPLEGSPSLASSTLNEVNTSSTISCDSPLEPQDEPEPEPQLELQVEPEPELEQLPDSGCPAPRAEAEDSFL

`O=c1[nH]c2ccccc2nc1/C=C/c1ccco1` [A8, (E)-3-[2-(Furan-2-yl)ethenyl]-1,2-dihydro-quinoxalin-2-one]: in series [1], the half-maximal inhibitory concentration (IC50) – broadly, the midpoint of a concentration-inhibition curve – at 72 h is above 100 µM.
Regarding `O=c1c(/C=C/c2ccccc2Br)nc2ccccc2n1Cc1ccccc1` [C3, (E)-3-[2-(2-Bromophenyl)ethenyl]-1,2-dihydro-1-phenylmethyl-quinoxalin-2-one], the half-maximal inhibitory concentration (IC50) at 72 h in series [1] was above 100 µM.
Turning to `CN1CCN(c2nc3ccccc3nc2/C=C/c2ccccc2F)CC1` [D3, (E)-2-(4-Methylpiperazin-1-yl)-3-[2-(2-fluorophenyl)ethenyl]-quinoxalin], the 50% inhibitory concentration (IC50) at 72 h in series [1] is above 100 µM.
Take `O=c1[nH]c2ccccc2nc1/C=C/c1ccccc1F` [A6, (E)-3-[2-(2-Fluorophenyl)ethenyl]-1,2-dihydro-quinoxalin-2-one]: the IC50 at 72 h in series [1] is above 100 µM.
With `O=c1c(/C=C/c2ccccc2Cl)nc2ccccc2n1Cc1ccccc1` [C2, (E)-3-[2-(2-Chlorophenyl)ethenyl]-1,2-dihydro-1-phenylmethyl-quinoxalin-2-one], the half-maximal inhibitory concentration (IC50) in series [2], in series [3], in series [5] and in series [6] was above 100 µM in each case. In addition, the Selectivity ratio in series [4] came out at 3.68. The same compound returned an IC50 at 72 h in series [1] above 100 µM.
`Cn1c(=O)c(/C=C/c2ccccc2Br)nc2ccccc21` [B3, (E)-3-[2-(2-Bromophenyl)ethenyl]-1,2-dihydro-1-methyl-quinoxalin-2-one] yielded an IC50 at 72 h in series [1] of 49 ± 1.31 µM.
`O=c1[nH]c2ccccc2nc1/C=C/c1ccccc1[N+](=O)[O-]` [A10, (E)-1,2-Dihydro-3-[2-(2-nitrophenyl)ethenyl]-quinoxalin-2-one] gave an IC50 at 72 h in series [1] of 68.2 ± 5.96 µM.
The compound `Fc1ccccc1/C=C/c1nc2ccccc2nc1Cl` [D1, (E)-2-Chloro-3-[2-(2-fluorophenyl)ethenyl]-quinoxalin] yielded an IC50 at 72 h in series [1] of 40.2 ± 1.85 µM. Compared with the last compound, the IC50 at 72 h is about 1.7-fold lower.
As for `O=c1[nH]c2ccccc2nc1/C=C/c1cccs1` [A7, (E)-3-[2-(Thiophene-2-yl)ethenyl]-1,2-dihydro-quinoxalin-2-one], the IC50 at 72 h in series [1] was determined as 83.2 ± 8.12 µM.
In the case of `O=c1[nH]c2ccccc2nc1/C=C/c1ccccc1Cl` [A2, (E)-1,2-Dihydro-3-[2-(2-chlorophenyl)ethenyl]-quinoxalin-2-one], the 50% inhibitory concentration (IC50) in series [2] is above 100 µM; in series [3], above 100 µM; in series [7], 75.1 ± 2.56 µM; in series [4], 21.5 ± 2.24 µM; in series [5], 55.4 ± 1.72 µM; in series [6], above 100 µM. The Selectivity ratio in series [4] was 2.57. In series [1], this compound returned an IC50 at 72 h of 41.5 ± 7.56 µM.
For the compound `Cn1c(=O)c(/C=C/c2ccccc2)nc2ccccc21` [B1, (E)-1,2-Dihydro-1-methyl-3-(2-phenylethenyl)-quinoxalin-2-one], the half-inhibitory concentration (IC50) at 72 h in series [1] is above 100 µM.
`Oc1nc2ccccc2nc1/C=C/c1ccc(F)cc1` [A4, (E)-3-[2-(4-Fluorophenyl)ethenyl]-1,2-dihydro-quinoxalin-2-one]: in series [1], the half-inhibitory concentration (IC50) at 72 h was determined as 67.9 ± 1.94 µM.
With `Cn1c(=O)c(/C=C/c2ccccc2Cl)nc2ccccc21` [B2, (E)-3-[2-(2-Chlorophenyl)ethenyl]-1,2-dihydro-1-methyl-quinoxalin-2-one], the IC50 is above 100 µM in series [2]; above 100 µM in series [3]; above 100 µM in series [7]; 26.1 ± 1.32 µM in series [4]; above 100 µM in series [5]; above 100 µM in series [6]. The compound also gave an IC50 at 72 h in series [1] above 100 µM.
As for `O=c1c(/C=C/c2ccccn2)nc2ccccc2n1Cc1ccccc1` [C5, (E)-3-[2-(Pyridine-2-yl)ethenyl]-1,2-dihydro-1-phenylmethyl-quinoxalin-2-one], in series [1], the half-maximal inhibitory concentration (IC50) at 72 h was 35.8 ± 2.17 µM.
`CN1CCN(c2ccc3nc(-c4c(N)c5c(F)cccc5[nH]c4=O)[nH]c3c2)CC1` [TKI258, reference compound] returned an IC50 at 72 h in series [1] of 32.8 ± 2.38 µM.
Turning to `O=c1[nH]c2ccccc2nc1/C=C/c1ccccn1` [A5, (E)-3-[2-(Pyridine-2-yl)ethenyl]-1,2-dihydro-quinoxalin-2-one], the half-inhibitory concentration (IC50) in series [2], in series [3], in series [7], in series [5] and in series [6] was above 100 µM in each case. In addition, the “inhibition ratio of FGFR1” value in series [4] (at 10.0 µM) is reported as 79.33%. In series [1], this compound returned an IC50 at 72 h above 100 µM. In series [8], the “survival rate of HL7702 cells compared with TKI258” value is recorded as “higher survival rate”.
In turn, `COc1cccc(/C=C/c2nc3ccccc3[nH]c2=O)c1OC` [A9, (E)-1,2-Dihydro-3-[2-(2,3-dimethoxyphenyl)ethenyl]-quinoxalin-2-one] came in with an IC50 at 72 h in series [1] above 100 µM.
In turn, `O=c1[nH]c2ccccc2nc1/C=C/c1ccc(C(F)(F)F)cc1` [A11, (E)-1,2-Dihydro-3-[2-(4-trifluoromethylphenyl)ethenyl]-quinoxalin-2-one] registered a half-inhibitory concentration (IC50) at 72 h in series [1] above 100 µM.
As to `O=c1[nH]c2ccccc2nc1/C=C/c1ccccc1` [A1, (E)-1,2-Dihydro-3-(2-phenylethenyl) quinoxalin-2-one], the half-inhibitory concentration (IC50) in series [2] was above 100 µM; in series [3] it was above 100 µM; in series [7] it was 89.6 ± 3.32 µM; in series [4] it was 23.2 ± 1.12 µM; in series [5] it was above 100 µM; in series [6], above 100 µM. Besides, the Selectivity ratio in series [4] is reported as 3.86. Also, the IC50 at 72 h in series [1] was above 100 µM.
Turning to `O=c1[nH]c2ccccc2nc1/C=C/c1ccc2ccccc2c1` [A13, (E)-1,2-Dihydro-3-[2-(naphth-2-yl)ethenyl]-quinoxalin-2-one], the IC50 at 72 h in series [1] was above 100 µM.
On the same count and under the same terms, the same measure for `Cn1c(=O)c(/C=C/c2ccc(F)cc2)nc2ccccc21` [B4, (E)-1,2-Dihydro-3-[2-(4-fluorophenyl)ethenyl]-1-methyl-quinoxalin-2-one]: above 100 µM.
Take `Cn1c(=O)c(/C=C/c2ccccn2)nc2ccccc21` [B5, (E)-3-[2-(Pyridine-2-yl)ethenyl]-1,2-dihydro-1-methyl-quinoxalin-2-one]: the IC50 is above 100 µM in series [2]; above 100 µM in series [3]; above 100 µM in series [7]; 89.5 ± 3.56 µM in series [5]; above 100 µM in series [6].
For the compound `O=c1c(/C=C/c2ccccc2F)nc2ccccc2n1Cc1ccccc1` [C4, (E)-3-[2-(2-Fluorophenyl)ethenyl]-1,2-dihydro-1-phenylmethyl-quinoxalin-2-one], the IC50 at 72 h in series [1] was above 100 µM.
`O=c1c(/C=C/c2ccccc2)nc2ccccc2n1Cc1ccccc1` [C1, (E)-1,2-Dihydro-3-(2-phenylethenyl)-1-phenylmethyl-quinoxalin-2-one] came in with a 50% inhibitory concentration (IC50) at 72 h in series [1] above 100 µM.
